Data reported in patent publication US11584747B2, “Substituted pyridopyrimidinonyl compounds useful as T cell activators” (BRISTOL-MYERS SQUIBB COMPANY, priority 2019, dated 2023).
Like-named read-outs stand apart in the source and are kept apart here.

Experiments:
human DGKα = human DGKα (Homo sapiens (Human), UniProt P23743); test: DGKα LIPGLO assay (extruded liposome substrate, ADP-Glo luminescence); assay type: biochemical; settings: liposome assay; read-out: DGK alpha LIPGLO IC50
human DGKζ = human DGKζ (Homo sapiens (Human), UniProt Q13574); test: DGKζ LIPGLO assay (extruded liposome substrate, ADP-Glo luminescence); assay type: biochemical; settings: liposome assay; read-out: DGK zeta LIPGLO IC50
[1] = test system: human venous whole blood (IFN-γ); test: Human whole blood IFN-γ assay; assay type: cell-based; settings: whole blood, normalized to 3 μM reference compound as 100% activation, read-out: IFN-γ Whole Blood Normalized EC50
Protocol: Human venous whole blood (22.5 μL per well), obtained from healthy donors, was pre-treated with compounds for one hour at 37° C. in a humidified 95% air/5% CO2 incubator. The blood was stimulated with 2.5 μL anti-human CD3 and anti-CD28 mAb at a final concentration of 1 μg/mL each for 24 hours at 37° C. IFN-γ in the supernatants was measured using AlphLISA kit (Cat #AL217).

whole blood (pERK) = test: pERK Whole Blood assay (Table A; no whole-blood pERK method described); assay type: cell-based; settings: normalized

human DGKα, sequence (P23743 whole entry, looked up): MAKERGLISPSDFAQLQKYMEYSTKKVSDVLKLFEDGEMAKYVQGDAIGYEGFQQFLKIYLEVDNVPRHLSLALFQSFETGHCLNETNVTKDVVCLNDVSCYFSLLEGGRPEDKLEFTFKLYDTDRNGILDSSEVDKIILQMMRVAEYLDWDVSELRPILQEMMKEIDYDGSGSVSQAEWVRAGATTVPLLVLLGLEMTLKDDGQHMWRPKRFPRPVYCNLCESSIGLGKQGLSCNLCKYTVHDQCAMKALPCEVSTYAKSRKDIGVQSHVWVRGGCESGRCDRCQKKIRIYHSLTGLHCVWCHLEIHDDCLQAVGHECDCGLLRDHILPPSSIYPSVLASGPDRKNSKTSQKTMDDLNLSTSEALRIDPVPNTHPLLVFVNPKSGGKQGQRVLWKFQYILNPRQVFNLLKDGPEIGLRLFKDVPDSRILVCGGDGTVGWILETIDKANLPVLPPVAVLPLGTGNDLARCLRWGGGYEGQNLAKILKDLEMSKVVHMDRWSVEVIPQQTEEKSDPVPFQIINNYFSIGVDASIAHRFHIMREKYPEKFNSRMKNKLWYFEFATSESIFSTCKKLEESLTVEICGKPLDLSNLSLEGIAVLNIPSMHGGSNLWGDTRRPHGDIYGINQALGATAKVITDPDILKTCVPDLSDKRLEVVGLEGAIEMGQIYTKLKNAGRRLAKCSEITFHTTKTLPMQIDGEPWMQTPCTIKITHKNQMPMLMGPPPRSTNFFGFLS
human DGKζ, sequence (Q13574 other isoform, or with tags, fused parts or gaps): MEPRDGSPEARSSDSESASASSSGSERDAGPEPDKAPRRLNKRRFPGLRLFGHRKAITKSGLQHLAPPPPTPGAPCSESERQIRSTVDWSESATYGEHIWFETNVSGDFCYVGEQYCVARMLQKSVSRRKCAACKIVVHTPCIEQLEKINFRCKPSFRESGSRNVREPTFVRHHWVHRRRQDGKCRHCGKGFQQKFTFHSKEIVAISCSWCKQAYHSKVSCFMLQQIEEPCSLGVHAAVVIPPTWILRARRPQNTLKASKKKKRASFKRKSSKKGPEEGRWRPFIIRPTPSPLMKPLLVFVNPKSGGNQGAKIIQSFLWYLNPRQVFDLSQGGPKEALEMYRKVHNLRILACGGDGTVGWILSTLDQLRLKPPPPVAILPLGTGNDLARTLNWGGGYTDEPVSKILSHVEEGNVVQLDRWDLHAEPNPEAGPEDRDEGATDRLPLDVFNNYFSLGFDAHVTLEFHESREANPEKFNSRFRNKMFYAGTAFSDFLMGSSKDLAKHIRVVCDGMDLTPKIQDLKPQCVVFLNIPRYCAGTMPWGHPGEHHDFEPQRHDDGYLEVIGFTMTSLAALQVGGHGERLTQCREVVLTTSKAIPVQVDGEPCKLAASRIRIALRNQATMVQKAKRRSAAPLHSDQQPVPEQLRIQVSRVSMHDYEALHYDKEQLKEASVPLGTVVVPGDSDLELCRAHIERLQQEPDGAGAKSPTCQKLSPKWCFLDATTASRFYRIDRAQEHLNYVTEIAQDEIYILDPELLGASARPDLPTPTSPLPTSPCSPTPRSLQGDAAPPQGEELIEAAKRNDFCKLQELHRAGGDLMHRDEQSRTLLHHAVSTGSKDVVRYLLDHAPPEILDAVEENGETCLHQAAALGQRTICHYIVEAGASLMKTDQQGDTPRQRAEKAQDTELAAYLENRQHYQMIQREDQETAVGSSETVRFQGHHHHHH

Row | SMILES | IC50 (human DGKα) | IC50 (human DGKζ) | EC50 [1] | IC50 (whole blood (pERK)) | EC50 ([1]; Homo sapiens)
1 | CC(c1ccc(OC(F)(F)F)cc1)N1C[C@H](C)N(c2nc(=O)n(C)c3ccc(C#N)nc23)C[C@H]1CO (single isomer, unassigned) [Example 183] | 83 nM | 2690 nM | 2330 nM | 270 nM | 
2 | C[C@@H]1CN(c2nc(=O)n(C)c3ccc(C#N)nc23)[C@@H](C)CN1C(c1ccc(F)cc1)c1nc(C2CC2)no1 (single isomer, unassigned) [Example 107] | 130 nM | 40 nM | 49 nM | 120 nM | 
3 | CC(c1ccc(F)cc1F)N1C[C@H](C)N(c2nc(=O)n(C)c3ccc(C#N)nc23)C[C@H]1C (single isomer, unassigned) [Example 145] | 1130 nM | 1890 nM |  | 750 nM | 20000 nM
4 | CC[C@H]1CN(C(C)c2ccc3c(c2)OC(F)(F)O3)[C@H](CC)CN1c1nc(=O)n(C)c2ccc(C#N)nc12 (single isomer, unassigned) [Example 14] | 350 nM | 36 nM | 94 nM | 900 nM | 
5 | CC(c1ccc(OC(F)F)cc1)N1C[C@H](C)N(c2nc(=O)n(C)c3ccc(C#N)nc23)C[C@H]1C (single isomer, unassigned) [Example 157] | 330 nM | 1380 nM |  | 4360 nM | 1420 nM
6 | C[C@@H]1CN(c2nc(=O)n(C)c3ccc(C#N)nc23)[C@@H](C)CN1C(c1ccc(F)cc1)c1ccc(F)cc1 [Example 124, 4-((2S,5R)-4-(bis(4-fluorophenyl)methyl)-2,5-dimethylpiperazin-1-yl)-1-methyl-2-oxo-1,2-dihydropyrido[3,2-d]pyrimidine-6-carbonitrile] | 560 nM | 2560 nM |  | 270 nM | 500 nM
7 | CC[C@@H]1CN(c2nc(=O)n(C)c3ccc(C#N)nc23)[C@@H](C)CN1Cc1ccc(OC(F)(F)F)cc1 [Example 54, 4-((2S,5R)-5-ethyl-2-methyl-4-(4-(trifluoromethoxy)benzyl)piperazin-1-yl)-1-methyl-2-oxo-1,2-dihydropyrido[3,2-d]pyrimidine-6-carbonitrile] | 240 nM | 350 nM |  | 910 nM | 310 nM
8 | CC[C@H]1CN(C(C)c2ccc(C(F)(F)F)cc2)[C@H](C)CN1c1nc(=O)n(C)c2ccc(C#N)nc12 (stereo partly drawn) [Example 117, 4-((2S,5R)-2-ethyl-5-methyl-4-(1-(4-(trifluoromethyl)phenyl)ethyl)piperazin-1-yl)-1-methyl-2-oxo-1,2-dihydropyrido[3,2-d]pyrimidine-6-carbonitrile] | 2 nM | 2 nM | 160 nM | 780 nM | 
9 | CC(c1ccc(C(F)(F)F)cc1F)N1C[C@H](C)N(c2nc(=O)n(C)c3ccc(C#N)nc23)C[C@H]1C (single isomer, unassigned) [Example 150] | 350 nM | 200 nM |  | 140 nM | 480 nM
10 | CC[C@@H]1CN(c2nc(=O)n(C)c3ccc(C#N)nc23)[C@@H](C)CN1C(C)c1ccc(OC)cc1 (single isomer, unassigned) [Example 56] | 37 nM | 11 nM | 39 nM | 200 nM | 
11 | CC[C@@H]1CN(c2nc(=O)n(C)c3ccc(C#N)nc23)[C@@H](C)CN1C(C)c1ccc(OC(F)(F)F)cc1 (single isomer, unassigned) [Example 48] | 16 nM | 48 nM | 18 nM | 25 nM | 
12 | CC[C@H]1CN(C(c2ccc(F)cc2)c2ccon2)[C@H](CC)CN1c1nc(=O)n(C)c2ccc(C#N)nc12 (single isomer, unassigned) [Example 35] | 30 nM | 120 nM | 120 nM | 150 nM | 
13 | CC(c1ccc(C2CC2)cc1F)N1C[C@H](C)N(c2nc(=O)n(C)c3ccc(C#N)nc23)C[C@H]1C (single isomer, unassigned) [Example 168] | 230 nM | 150 nM | 110 nM | 220 nM | 
14 | CC(c1ccc(OC(F)(F)F)cc1F)N1C[C@H](C)N(c2nc(=O)n(C)c3ccc(C#N)nc23)C[C@H]1C (single isomer, unassigned) [Example 142] | 52 nM | 230 nM |  | 100 nM | 3650 nM
15 | CC[C@@H]1CN(c2nc(=O)n(C)c3ccc(C#N)nc23)[C@@H](C)CN1C(c1ccc(F)cc1)c1cc(C2CC2)on1 (single isomer, unassigned) [Example 101] | 140 nM | 66 nM |  | 250 nM | 100 nM
16 | CC(c1ccc(F)c(F)c1)N1C[C@H](C)N(c2nc(=O)n(C)c3ccc(C#N)nc23)C[C@H]1C (single isomer, unassigned) [Example 149] | 4560 nM | 1180 nM | 8060 nM | 1950 nM | 

Row | SMILES | IC50 (human DGKα) | IC50 (human DGKζ) | EC50 [1] | IC50 (whole blood (pERK)) | EC50 ([1]; Homo sapiens)
17 | CC[C@@H]1CN(c2nc(=O)n(C)c3ccc(C#N)nc23)[C@@H](C)CN1C(c1ccc(F)cc1)c1ccon1 (single isomer, unassigned) [Example 73] | 29 nM | 140 nM | 22 nM | 80 nM | 
18 | CC[C@H]1CN(C(c2ccc(F)cc2)c2nc(C3CC3)nn2C)[C@H](CC)CN1c1nc(=O)n(C)c2ccc(C#N)nc12 (single isomer, unassigned) [Example 294] | 8290 nM | 42 nM |  | 200 nM | 660 nM
19 | CCC(c1ccc(OC(F)(F)F)cc1F)N1C[C@H](C)N(c2nc(=O)n(C)c3ccc(C#N)nc23)C[C@H]1C (single isomer, unassigned) [Example 152] | 29 nM | 92 nM | 200 nM | 110 nM | 
20 | CC[C@H]1CN(C(C)c2ccc(C(F)(F)F)cc2)[C@H](CC)CN1c1nc(=O)n(C)c2ccc(C#N)nc12 (single isomer, unassigned) [Example 20] | 140 nM | 36 nM | 60 nM | 130 nM | 
21 | CC[C@H]1CN(C(c2ccc(F)cc2)c2ccc(C(F)(F)F)cn2)[C@H](C)CN1c1nc(=O)n(C)c2ccc(C#N)nc12 (stereo partly drawn) [Example 115, 4-((2S,5R)-2-ethyl-4-((4-fluorophenyl)(5-(trifluoromethyl)pyridin-2-yl)methyl)-5-methylpiperazin-1-yl)-1-methyl-2-oxo-1,2-dihydropyrido[3,2-d]pyrimidine-6-carbonitrile] | 160 nM | 2470 nM | 230 nM | 520 nM | 
22 | COC[C@@H]1CN(c2nc(=O)n(C)c3ccc(C#N)nc23)[C@@H](C)CN1C(C)c1ccc(OC(F)(F)F)cc1 (single isomer, unassigned) [Example 176] | 180 nM | 110 nM | 190 nM | 210 nM | 
23 | CC[C@@H]1CN(c2nc(=O)n(C)c3ccc(C#N)nc23)[C@@H](C)CN1C(c1ccc(F)cc1)c1ccc(C2CC2)cn1 (single isomer, unassigned) [Example 75] | 39 nM | 33 nM | 30 nM | 100 nM | 
24 | CC(c1ccc(Cl)cc1F)N1C[C@H](C)N(c2nc(=O)n(C)c3ccc(C#N)nc23)C[C@H]1C (single isomer, unassigned) [Example 146] | 47 nM | 44 nM |  | 250 nM | 710 nM
25 | CC[C@@H]1CN(c2nc(=O)n(C)c3ccc(C#N)nc23)[C@@H](C)CN1C(C)c1ccc(OC(F)(F)F)cc1F (single isomer, unassigned) [Example 81] | 300 nM | 130 nM | 57 nM | 99 nM | 
26 | CCC(c1ccc(OC(F)(F)F)cc1F)N1C[C@H](CC)N(c2nc(=O)n(C)c3ccc(C#N)nc23)C[C@H]1CC (single isomer, unassigned) [Example 12] | 410 nM | 600 nM |  | 600 nM | 4150 nM
27 | COC[C@@H]1CN(c2nc(=O)n(C)c3ccc(C#N)nc23)[C@@H](C)CN1C(C)c1ccc(OC(F)(F)F)cc1 (single isomer, unassigned) [Example 177] | 610 nM | 770 nM | 1710 nM | 520 nM | 
28 | CC[C@H]1CN(C(C)c2ccc(C(C)(C)C#N)cc2)[C@H](CC)CN1c1nc(=O)n(C)c2ccc(C#N)nc12 (stereo partly drawn) [Example 196, 4-((2S,5R)-4-(1-(4-(2-cyanopropan-2-yl)phenyl)ethyl)-2,5-diethylpiperazin-1-yl)-1-methyl-2-oxo-1,2-dihydropyrido[3,2-d]pyrimidine-6-carbonitrile] | 120 nM | 12 nM | 31 nM | 49 nM | 
29 | C[C@@H]1CN(c2nc(=O)n(C)c3ccc(C#N)nc23)[C@@H](C)CN1C(c1ccc(F)cc1)c1nc(C(C)(C)C)no1 (single isomer, unassigned) [Example 109] | 34 nM | 190 nM | 110 nM | 48 nM | 
30 | C[C@@H]1CN(c2nc(=O)n(C)c3ccc(C#N)nc23)[C@@H](C)CN1C(c1ccc(F)cc1)c1nc(C(C)(C)C)no1 (single isomer, unassigned) [Example 108] | 400 nM | 50 nM |  | 28 nM | 57 nM
31 | CC[C@H]1CN(C(c2ccc(F)cc2)c2ccc(C(F)(F)F)cn2)[C@H](CC)CN1c1nc(=O)n(C)c2ccc(C#N)nc12 (single isomer, unassigned) [Example 1] | 16 nM | 36 nM | 27 nM | 1040 nM | 
